Data from patent US8426369B2, “Prevention and treatment of colon cancer” (Rutgers, The State University of New Jersey, priority 2006, dated 2013).
Like-named read-outs stand apart in the source and are kept apart here.

Tests used:
cleaved PARP = assay: Western blot of cleaved PARP in HT-29 cells (apoptosis marker); type: cell-based, human; conditions: 9 h or 18 h
Procedure: The cells were incubated with different concentrations of pterostilbene for 1, 2 and 3 days, and cell proliferation was estimated by measuring [^3H]thymidine incorporated into DNA. […] In order to evaluate whether pterostilbene potentiates cell cycle arrest or apoptosis in HT-29 cells, the effect of pterostilbene on the proteins regulating the cell cycle and/or apoptosis pathways was examined. Cells treated with pterostilbene for 9 h or 18 h were harvested and protein samples were analyzed by Western blotting (FIG. 8B).
(§1) The cell culture conditions and the reagents used in this example were described in Example 32. Whole cell extracts were collected after the various treatments and analyzed by western blotting. The protein samples were separated on 4-15% SDS-PAGE gels (Biorad, Hercules, Calif.) followed by transfer to a polyvinylidene fluoride membrane. The membranes were blocked with 5% milk in Tris buffer for 1 h and then incubated with the appropriate primary antibody solutions overnight at 4° C. The membranes were washed with Tris buffer, and incubated with horseradish peroxidase conjugated secondary antibody solutions for 1 h at room temperature.
The protein bands were visualized using a chemiluminescence based kit from Amersham Biosciences (Buckinghamshire, UK). […]

p-Smad3 = assay: Activated Smad levels (p-Smad3) in HT-29 cells; type: cell-based, human; conditions: HT-29, data not shown
Excerpt: The significance of the transforming growth factor (TGF-β) pathway in down-regulating iNOS expression by pterostilbene was also investigated since TGF-β is a very potent inhibitor of iNOS and cytokines regulate Smad signaling of the TGF-β pathway. However, there was no effect of pterostilbene on activated Smad levels (p-Smad3) or in inducing TGF-β ligands (data not shown).

COX-2 mRNA = assay: Quantitative RT-PCR of cytokine-induced COX-2 mRNA in HT-29 cells; type: cell-based, human; conditions: 10 and 30 μM
Procedure: (§2) The cell culture conditions and the reagents used in this example were described in Example 32. The gene-mediated expression of iNOS and COX-2 are reported to be regulated at both the transcriptional and translational levels. In order to understand the effect of pterostilbene on cytokine-induced expression of proinflammatory enzymes and cytokines, RNA samples after treatment of HT-29 cells with cytokines and/or pterostilbene were analyzed by quantitative RT-PCR for the induction of mRNA levels of iNOS, COX-2, IL-1β, IFN-γ and TNF-α genes.
(§3) To determine the changes of mRNA levels by pterostilbene and cytokines, quantitative RT-PCR analysis was utilized, as described previously (Lee et al., Mol Pharmacol 2006; 69(6):1840-1848). Briefly, the cells were incubated with compounds for indicated period and the cells were then lysed using Trizol to extract RNA. RNA was reverse transcribed into cDNA using a high capacity cDNA archive kit (Applied Biosystems, Foster City, Calif.). The cDNA was used for quantitative PCR which was run on the ABI Prism […] sequence Detection System. The primers for the iNOS, COX-2, IFN-γ, TNF-α, IL-1β and GAPDH were obtained from Applied Biosystems (Foster City, Calif.).

p38 = assay: Western blot of phosphorylated p38 in cytokine-treated HT-29 cells; type: cell-based, human
Procedure: as §1
The protein bands were visualized using a chemiluminescence based kit from Amersham Biosciences (Buckinghamshire, UK). The primary antibodies against iNOS, COX-2, IκBα, cyclin D1, c-myc (Santa Cruz Bio-technology, Santa Cruz, Calif.), phospho-STAT3, phospho-Erk1/2, phospho-JNK1/2, phospho-p38, phospho-Akt, phospho-ATF2, phospho-Elk1, PARP (Cell Signaling Technology Inc., Beverly, Mass.) and actin (Sigma, St. Louis, Mo.) and secondary antibodies (Santa Cruz Biotechnology, Santa Cruz, Calif.) were used for probing the abundance of the target protein in the samples.

TNF-α mRNA = assay: Quantitative RT-PCR of cytokine-induced TNF-α mRNA in HT-29 cells; type: cell-based, human
Procedure: as §2, §3

[1] = rats; cited from earlier work
[2] = test system: azoxymethane-induced aberrant crypt foci (ACF); assay: Azoxymethane-induced aberrant crypt foci (ACF) in rat colon, dietary pterostilbene; type: in vivo, male F344 rats; conditions: for inhibition at 40 ppm: Rattus norvegicus, feed or water, 40 ppm in diet, compared to control diet
Procedure: Weanling male F344 rats were obtained from Charles River Breeding Laboratories (Kingston, N.Y.). All experimental diets were purchased from Research Diets (New Brunswick, N.J.) and stored at 4° C. All animals were randomly distributed by weight into control and experimental groups and housed in plastic cages with filter tops (three per cage) under controlled conditions of a 12-hr light and dark cycle, 50% humidity and 21° C. temperature. Animals had access to food and water at all times. Food cups were replenished with fresh diet two times weekly.
(§4) Beginning at 5 weeks of age, all rats were fed the modified American Institute of Nutrition-76A (AIN-76A) diet. At 7 weeks of age, the animals were given s.c. injections of azoxymethane (AOM) (CAS no. 25843-45-2, Ash Stevens, Detroit, Mich.) once weekly for 2 weeks at a dose rate of 15 mg/kg body weight. One day after the second AOM injection, groups of animals (n=9 per group) were maintained on AIN-76A diet alone and AIN-76A diet containing 40 ppm pterostilbene. […] See, e.g., U.S. Application Publication No. US 2006-0057231 A1.
(§5) On the average, the animal consumed about 0.6 mg pterostilbene per day. All rats were weighed once weekly until termination of the study at 8 weeks after the second AOM treatment were sacrificed by CO2 asphyxiation. After laparotomy, the entire stomach, small intestine, and large intestine were resected. The organs were opened longitudinally, and the contents were flushed with normal saline.
For the ACF analysis, the colons were fixed flat between two pieces of filter paper in 10% buffered formalin for a minimum of 24 hr. The colons were then cut into 2-cm segments, starting at the anus. They were stained with 0.2% methylene blue in Krebs-Ringer solution for 5-10 min, and were then placed mucosal side up on a microscope slide and observed through a light microscope. ACF were counted and recorded according to standard procedures that are being used routinely in the laboratory. […] The parameters used to assess the aberrant crypts were their occurrence and multiplicity. Crypt multiplicity was determined as the number of crypts in each focus. Multicrypts were categorized as containing up to four or more aberrant crypts/focus.
Total number of ACF/colon and multiple aberrant crypts/focus were counted and the data were analyzed by Student's t-test. The PCNA labeling index (PI) was calculated as the [(number of positive cells)/(total number of cells)]×100 for each field which is averaged to get the PI for each section. The significance of treatment between the groups was analyzed by Student's t-Test.

B16M-F10 melanoma cells = conditions: intravenous administration to mice; cited from earlier work
[3] = Body weight / overt toxicity during the ACF feeding study; type: in vivo; conditions: 40 ppm in diet
Procedure: as §4, §5

[4] = 40 ppm in AIN-76A diet, 8 weeks after second AOM treatment, Mean ± S.D. (n = 9)

## COc1cc(/C=C/c2ccc(O)cc2)cc(OC)c1 [pterostilbene, (E)-4-(3,5-dimethoxystyryl)phenol]
Cleaved PARP
  level of cleaved PARP: increased
p-Smad3
  activated Smad levels (p-Smad3): no effect
COX-2 mRNA
  COX-2 mRNA induction by the cytokine mixture: strongly inhibited
p38
  activation of p38 by cytokines: strongly inhibited
TNF-α mRNA
  TNF-α mRNA induction by the cytokine mixture: weak inhibitory effect
[1]
  serum glucose: lower serum glucose
[2]; [4]
  >4 ACF/colon: 25.1 ± 5.6
  ACF/colon: 117 ± 12
[2]; read-out: inhibition of multiple aberrant crypts/focus
  inhibition at 40 ppm: 29%
[2]; read-out: inhibition of total ACF/colon
  inhibition at 40 ppm: 57%
B16M-F10 melanoma cells
  metastatic growth of B16M-F10 melanoma cells in the liver: inhibited metastatic growth
[3]
  overt toxicity: did not cause any overt toxicity
[3]; throughout the study
  body weights compared to control diet: comparable
